Test results from the supplement of paper PMC10307832.

What was measured:
Assay in all cases: relative viability (nuclei count vs DMSO), 5 days (fraction); higher = more cells survive
[1] = compound: CC(C)=CC[C@@H](O)C1=CC(=O)c2c(O)ccc(O)c2C1=O [Shikonin] + Cc1cc(Nc2cc(N3CCN(C)CC3)nc(Sc3ccc(NC(=O)C4CC4)cc3)n2)n[nH]1 [Tozasertib] (partner 0.1 µM)
Summary of the method: (§1)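 For relative viability, nuclei counts in treated wells were divided by those in vehicle wells. Lung cancer cell lines had been pin-tool dosed in 1536-well plates the day after seeding and cultured for 5 days, then fixed and stained in one step (final 0.05% Triton X-100, 1% formaldehyde, 1 ug/ml Hoechst) and imaged at 4×. Doses were one drug alone or a fixed anchor-drug dose plus five library-drug doses (not always all listed) in √10 steps, and values are duplicate-plate medians.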

[2] = compound: CC(C)N(CCCNC(=O)Nc1ccc(C(C)(C)C)cc1)C[C@H]1O[C@@H](n2ccc3c(N)ncnc32)[C@H](O)[C@@H]1O + CC(=O)c1c(C)c2cnc(Nc3ccc(N4CCNCC4)cn3)nc2n(C2CCCC2)c1=O [Palbociclib] (partner 0.5 µM)
Summary of the method: as §1

[3] = compound: CC(C)N(CCCNC(=O)Nc1ccc(C(C)(C)C)cc1)C[C@H]1O[C@@H](n2ccc3c(N)ncnc32)[C@H](O)[C@@H]1O + CC1(C)CCC(c2ccc(Cl)cc2)=C(CN2CCN(c3ccc(C(=O)NS(=O)(=O)c4ccc(N[C@H](CCN5CCOCC5)CSc5ccccc5)c(S(=O)(=O)C(F)(F)F)c4)cc3)CC2)C1 [Navitoclax] (partner 0.5 µM)
Summary of the method: as §1

[4] = compound: CC(C)N(CCCNC(=O)Nc1ccc(C(C)(C)C)cc1)C[C@H]1O[C@@H](n2ccc3c(N)ncnc32)[C@H](O)[C@@H]1O + C[C@]1(O)C[C@@H](c2nc(-c3ccc4ccc(-c5ccccc5)nc4c3)c3c(N)nccn32)C1 [Linsitinib] (partner 1 µM)
Summary of the method: as §1

| Cell Line | relative viability ([1]; first compound 0.01 µM) | relative viability ([1]; first compound 0.1 µM) | relative viability ([1]; first compound 0.3162 µM) | relative viability ([1]; first compound 1 µM) | relative viability ([2]; first compound 0.08 µM) | relative viability ([2]; first compound 0.253 µM) | relative viability ([2]; first compound 0.8 µM) | relative viability ([2]; first compound 2.53 µM) | relative viability ([2]; first compound 8 µM) | relative viability ([3]; first compound 0.08 µM) | relative viability ([3]; first compound 0.8 µM) | relative viability ([3]; first compound 2.53 µM) | relative viability ([3]; first compound 8 µM) | relative viability ([4]; first compound 0.08 µM) | relative viability ([4]; first compound 0.8 µM) | relative viability ([4]; first compound 2.53 µM) | relative viability ([4]; first compound 8 µM) | relative viability ([3]; first compound 0.253 µM) | relative viability ([4]; first compound 0.253 µM) |
| --- | --- | --- | --- | --- | --- | --- | --- | --- | --- | --- | --- | --- | --- | --- | --- | --- | --- | --- | --- |
| NCI-H647 | 0.407 | 0.323 | 0.247 | 0.193 | 0.35 | 0.396 | 0.3 | 0.406 | 0.421 | 0.894 | 1.07 | 1.06 | 1.05 | 1.12 | 1.17 | 1.13 | 1.03 | – | – |
| NCI-H2023 | 0.477 | 0.453 | 0.383 | 0.412 | 0.458 | 0.312 | 0.634 | 0.338 | 0.329 | 0.989 | 1.01 | 1.05 | 0.988 | 0.661 | 0.72 | 0.709 | 0.652 | 1.05 | 0.734 |
| LOU-NH91 | 0.685 | 0.711 | 0.613 | 0.683 | 0.538 | 0.503 | – | 0.53 | 0.611 | 0.628 | – | 0.652 | 0.606 | 0.944 | – | 0.998 | 0.918 | 0.581 | 0.873 |
| NCI-H3122 | 0.359 | 0.431 | 0.462 | 0.51 | 0.204 | 0.162 | 0.161 | 0.198 | 0.197 | 1.03 | 1.04 | 0.985 | 0.931 | 1.03 | 0.919 | 1.01 | 0.938 | 0.997 | 0.989 |
| LCLC-97TM1 | 0.254 | 0.21 | 0.222 | 0.17 | 0.195 | 0.247 | 0.218 | 0.236 | 0.252 | 0.407 | 0.296 | 0.273 | 0.432 | 0.195 | 0.133 | 0.158 | 0.191 | – | – |
| PC-14 | 0.619 | 0.638 | 0.743 | 0.652 | 0.467 | 0.439 | 0.586 | 0.444 | 0.496 | 1 | 0.946 | 1.03 | 0.847 | 0.962 | 0.979 | 0.908 | 0.857 | 0.996 | 0.969 |
| H3255 | 0.804 | 0.535 | 0.64 | 0.797 | 0.328 | 0.33 | 0.308 | 0.299 | 0.316 | 0.518 | 0.545 | 0.367 | 0.551 | 0.804 | 0.947 | 0.994 | 0.84 | 0.555 | 0.958 |
| SK-MES-1 | 1.1 | 1.05 | 0.998 | 0.857 | 0.317 | 0.357 | 0.309 | 0.375 | 0.325 | 1.12 | 1.28 | 1.18 | 1.19 | 1.06 | 1.11 | 1.09 | 1.06 | 1.26 | 1.17 |
| NCI-H1437 | 0.417 | 0.43 | 0.405 | 0.455 | 0.299 | 0.289 | 0.288 | 0.275 | 0.307 | 1 | 1.07 | 1.14 | 1.04 | 0.974 | 1.16 | 1.05 | 0.936 | 1.11 | 1.03 |
